13 compounds from patent US5332733A, “Heterocyclically substituted piperazinoakylbenzoxazine and piperazinoalkylbenzothiazine compounds, processes for preparing them, and medicaments containing them” (Kali-Chemie Pharma GmbH, priority 1990, dated 1994) can be followed below.

What is called inhibition in vivo is the relative decrease from the control value, in per cent. The low end stands for a weak effect, the high end for a strong effect. By inhibition is commonly meant the relative decrease from the control value, in per cent.

Series [1] relates to passive cutaneous anaphylaxis (PCA). The experiment in a line: Inhibition of passive cutaneous anaphylaxis (PCA) in rats. The note with it: Rattus norvegicus, 1 h, 2 × 10^-5 mole/kg per os, one hour before ovalbumin challenge. Format: in vivo, Sprague-Dawley rats. Here is the method:
(§1) 1. Determining Inhibition of Passive Cutaneous Anaphylaxis (PCA) and Histamine-Induced Anaphylactoid Cutaneous Reaction
The PCA reaction is carried out following the methods described by Goose et al. (J. N. Immunology 16 (1969), 749) and by Martin et al. (Arch. Pharmacol. 316 (1981), 186).
The IgE-rich ovalbumin antiserum used in the test was obtained from immunized Brown-Norway rats. The were immunized with an intraperitoneal injection of a mixture of 100 μg of ovalbumin with a Bordetella pertussis suspension (Vaxicoq™, Manufactured by Institute Merieux, containing 5×10^9 organisms and 1.25 mg Al(OH)3). After 20 days the animals were re-immunized with a further intraperitoneal injection of a solution of 10 μg ovalbumin in 0.5 ml physiological saline solution. After a further four days the blood was removed from the animals and centrifuged. The resulting antiserum was stored at -20° C. until use.
(§2) The inhibition of the passive cutaneous anaphylaxis and of the anaphylactoid cutaneous reaction induced by histamine was determined as follows:
(§3) Sprague-Dawley rats having a body weight of 150-180 g were injected intradermally in one flank with 50 μl of a 1:75 dilution of the IgE-rich ovalbumin antiserum in physiological saline solution to passively sensitize them to ovalbumin.
(§4) 24 hours after sensitization a solution of 8.25 mg/kg of ovalbumin and 26.4 mg/kg of a blue dye (Evans's Blue) was administered to the rats intravenously according to Martin et al. to trigger passive cutaneous anaphylaxis.
(§5) On the day of the experiment the test substances were dissolved in distilled water which contained 1 vol. % dimethylformamide and 1 vol. % of Tween™ 20 (=polyoxyethylene (20) sorbitan monolaurate). One hour before administration of the ovalbumin challenge, each animal was orally administered 2×10^-5 mole/kg of test substance in 0.5 ml of solution. For comparison purposes a control group received only the solvent.
(§6) The edematous anaphylactic (PCA) and anaphylactoid (histamine-induced) reactions caused by the stimulation of the intravenous ovalbumin injection, which manifested themselves by edema formation, swelling and exudation of blue dye, were evaluated 30 minutes after their initiation by the intravenous ovalbumin injection. This was done by visually determining the extent to which the blue dye emerged at the sites of edema formation. The percentage inhibition of anaphylactic and anaphylactoid reactions induced by the test substances in comparison with the reactions of the control animals not treated with any test substance was determined using comparison scales.
(§7) The results obtained using compounds of formula I according to the foregoing test methods are shown in the following Table A. The example numbers given for the compounds of formula I relate to the subsequent preparative examples.

The test system of series [2] is histamine-induced anaphylactoid cutaneous reaction. The experiment in a line: Inhibition of histamine-induced anaphylactoid cutaneous reaction in rats. Type of series: in vivo, Sprague-Dawley rats. The note with it: Rattus norvegicus, 1 h, 2 × 10^-5 mole/kg per os, one hour before ovalbumin challenge. Here is the method: as §1, §2, §3, §4
To determine the histamine-induced anaphylactoid skin reaction, the animals are injected intradermally in the flank opposite to the antiserum administration with 50 μl of a physiological saline solution containing 0.8 mg/ml histamine directly before the intravenous injection of the solution containing the ovalbumin and the blue dye.
as §5, §6, §7

Series [3] addresses T1, histamine-(H1)-receptor (Cavia porcellus, UniProt P31389).
T1 construct: Segments of the ileum 1.5 cm long from Dunkin Hartley guinea pigs; from tissue; host or cells: isolated ileum of Dunkin Hartley guinea pigs
Put plainly: Histamine-(H1)-receptor antagonism in vitro, histamine-induced contractions of isolated ileum. Format: cell-based, guinea pig (Dunkin Hartley). To be noted: test substance 10^-6 mole/l, histamine 5 × 10^-6 mole/l. Here is the method: 3. Investigation of Anti-Histamine-(H1) Effect Based on Histamine-(H1)-Receptor Antagonism In Vitro
To investigate the histamine-(H1)-receptor antagonism of the test substances, the inhibiting effect of the substances on histamine-induced contractions of the smooth muscle was determined in vitro on the isolated organ. Isolated strips of organ from the ileum are suitable for this purpose. In an organ bath of physiological saline solution the smooth muscle strips react to the addition of histamine by contracting. […] The extent of regression of the contraction is an indication of the anti-histamine-(H1) activity of the compounds. The investigation was carried out analogously to the method originally described by Magnus (Pfluegers Arch. 102, 123 (1904)).
Procedure for determining the smooth muscle contraction inhibiting effect on isolated guinea pig ileum induced by a 5×10^-6 molar histamine concentration
Segments of the ileum 1.5 cm long from Dunkin Hartley guinea pigs having a body weight of 300 500 g were used for the test. Each strip was placed in an organ bath of 10 ml of physiological saline solution according to Krebs-Henseleit and attached to a conventional apparatus for isotonic measurement of changes in length of the ileum strips (automated Celaster measuring apparatus), so that the tissue was under 1 g of tension. The bath was kept at a pH of 7.4 and gassed with a mixture of 5% CO2 and 95% O2. After an equilibration phase, an isotonic contraction of the tissue was induced by adding histamine in a final concentration of 5×10^-6 mole/liter and washing it out again after a contact time of 30 seconds. Only tissues samples from which three reproducible contractions were obtained at 10 minute intervals were used in the subsequent test. The test substances were then added in a final concentration of 10^-6 mole/liter, and after 30 seconds contact time histamine was again added up to a concentration of 5×10^-6 mole/liter. The resulting contractions were measured over 30 seconds. The tissue was then washed several times over a period of 10 minutes. Histamine was then added again to stimulate a contraction. The resulting contractions were again measured over 30 seconds. The difference between the amplitude of the contraction obtained by histamine addition alone and the amplitude of the contraction obtained in the presence of the test substance was determined and expressed in terms of % inhibition.
The inhibiting effects on the contractions induced by histamine 30 seconds after administration of the test substance and on the contractions induced by the addition of histamine 10 minutes later are listed in the table.

In series [4] the test system is PAF-induced aggregation of rabbit blood platelets. Put plainly: Anti-PAF activity in vitro, PAF-induced platelet aggregation. To be noted: Oryctolagus cuniculus, test substance 10^-5 mole/l, pH 7.4. Format: cell-based, rabbit (New Zealand hybrids). The text has this: 4. Determination of Anti-PAF Activity In Vitro
PAF (=Platelet Activating Factor) is a phospholipid mediator which has many effects. Activation of platelet aggregation induces protracted broncho-contraction and hyper-reactivity of the air paths.
In this test the effect of the test substances on platelet aggregation induced by adding PAF to a suspension of platelets obtained from rabbit blood is investigated using the method described by Mikashima et al. (Jap. J. Pharmacol. 44 (1987) 387-391).
A suspension of platelets obtained from rabbit blood containing 4×10^9 platelets/ml in a modified Tyrode buffer solution (=Tyrode solution with 1.3 mM/l CaCl2 and 2.5 g/l gelatine added) adjusted to pH 7.4 was used. Tyrode solution is an aqueous solution containing 136.9 mmoles NaCl, 2.68 mmoles KCl, 2.31 mmoles CaCl2, 1.0 mmole MgCl2, 11.9 mmoles NaHCO3, 1.45 mmoles NaH2 PO4 and 5.55 mmoles glucose per liter. The platelets were obtained from 10 ml blood samples from each of three rabbits (New Zealand hybrids, body weight 3-4 kg). For this the blood samples were treated with ethylenediamine tetraacetic acid and washed according to the method of Artley et al. (Brit. J. Hematol. 19 (1970), 7-17). A platelet-rich plasma was then initially separated by centrifuging (20 minutes at 400×g). The blood platelets were separated from the plasma by recentrifuging for 15 minutes at 1,400×g. The platelets remaining as sediment after centrifuging were resuspended in a Tyrode buffer solution (but without calcium). 0.4 mmole of lysine acetylsalicylate was then added, and after 15 minutes the platelets were sedimented again. The sediment was resuspended in the aforementioned modified Tyrode buffer solution, and the number of platelets in the resulting suspension was adjusted to the desired content.
A 40×10^-9 molar PAF solution was used as a reagent. This solution was made from a 1.8×10^-3 molar stock solution in chloroform. For this purpose a 10 μl sample of the stock solution was evaporated to dryness and redissolved in 180 μl of the modified Tyrode solution to which 0.25% of lipid-free bovine serum albumin had been added. From this 10^-5 molar working solutions were then prepared and stored frozen. Samples of these solutions were appropriately diluted for the tests.
To carry out the test 50 μl of the platelet suspension and 10 μl of a 40×10^-5 molar solution of the compound being investigated were added with stirring (1,000 rpm) to 330 μl of the modified Tyrode buffer solution in an aggregation tube provided with a small magnetic stirrer. This corresponds to a final test substance concentration of 10^-5 mole/l. After 90 seconds preincubation time, 10 μl of the PAF preparation were added. The aggregation occurring in the aggregation tubes was measured over 4-5 minutes with the aid of a computerized aggregometer.
The aggregation which occurred in test tubes containing only platelet suspension was evaluated as 0%, whereas the aggregation which occurred in test tubes containing platelet suspension and PAF preparation was evaluated as 100%. The aggregation which still occurred during the inhibition of the PAF induced platelet aggregation due to the addition of the test substances was measured, and the resulting aggregation inhibition was calculated therefrom in %.

Series [5] concerns mice. To be noted: mouse, in vivo, 1440 min. Here is the method:
2. Determination of Minimum Toxic Dose
Maximum doses of 300 mg/kg of the test substance were administered orally to male mice weighing 20-25 g. The animals were observed carefully for 3 hours for toxicity symptoms. In addition, all symptoms and deaths were recorded over a period of 24 hours after administration. Associated symptoms were also observed and recorded. If death or severe toxic symptoms were observed, additional mice were administered increasingly lower doses. The lowest dose which produced death or severe toxic symptoms is given in the following Table B as the minimum toxic dose.

Where [6] appears, read: 0.5 min, after 30 seconds, read-out: % inhibition of histamine-induced ileum contractions after 30 seconds.
Where [7] appears, read: 10 min, after 10 minutes (after washing), read-out: % inhibition of histamine-induced ileum contractions after 10 minutes.

Read-outs that look alike come from different tables or passages of the source.

T1 sequence (P31389 whole entry): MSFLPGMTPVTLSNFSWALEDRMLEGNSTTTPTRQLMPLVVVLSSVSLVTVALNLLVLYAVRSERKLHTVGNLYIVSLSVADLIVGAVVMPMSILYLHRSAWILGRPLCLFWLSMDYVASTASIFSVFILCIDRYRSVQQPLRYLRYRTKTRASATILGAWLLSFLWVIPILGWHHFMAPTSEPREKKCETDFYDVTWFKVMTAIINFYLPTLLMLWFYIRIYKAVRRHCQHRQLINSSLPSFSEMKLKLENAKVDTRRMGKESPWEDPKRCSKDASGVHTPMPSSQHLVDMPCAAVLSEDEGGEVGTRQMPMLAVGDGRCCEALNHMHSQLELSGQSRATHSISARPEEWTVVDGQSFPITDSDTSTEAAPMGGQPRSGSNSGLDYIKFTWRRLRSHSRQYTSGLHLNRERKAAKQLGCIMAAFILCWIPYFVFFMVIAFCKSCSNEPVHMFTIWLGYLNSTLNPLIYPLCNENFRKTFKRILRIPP

Turning to `Cc1ccnc(N2CCN(CCCCC3Sc4ccccc4N(C)C3=O)CC2)c1` (centres unmarked) [Example 3, 4-methyl-2-{4-[4-(4-methylpyridin-2-yl)-piperazin-1-yl]butyl}-2H-1,4-benzothiazine-3(4H)-one], the inhibition in vivo at 20 µmol/kg in series [1] was 80%; in series [2], 55%. Moreover, the inhibition at 1 µM was 66% in series [3] (setting [6]) and 28% in series [3] (setting [7]).
As to `Cc1ccnc(N2CCN(CCCC3Sc4cc(C)ccc4NC3=O)CC2)c1` (centres unmarked) [Example 10], the inhibition in vivo at 20 µmol/kg stood at 70% in series [1] and 35% in series [2]. The inhibition at 1 µM in series [3] (setting [6]) came out at 42%; in series [3] (setting [7]), 36%. Further, in series [4], at 10 µM the inhibition was 74%.
`O=C1Nc2ccccc2SC1CCCCN1CCN(c2ncccn2)CC1` (centres unmarked) [Example 12]: the inhibition in vivo at 20 µmol/kg in series [1] stood at 80%; in series [2] it was 50%. In series [5], this compound came in with a Minimum toxic dose of 300 mg/kg.
Consider `Cc1ccc(N2CCN(CCCCC3Sc4ccccc4NC3=O)CC2)nc1` (centres unmarked) [Example 13], for which the inhibition in vivo at 20 µmol/kg came to 55% in series [1] and 30% in series [2]. Further, in series [5], the Minimum toxic dose is 100 mg/kg. Further, the inhibition at 1 µM amounted to 42% in series [3] (setting [6]) and 15% in series [3] (setting [7]).
As for `O=C1Nc2ccccc2SC1CCCCN1CCN(c2ccccn2)CC1` (centres unmarked) [Example 17], the inhibition in vivo at 20 µmol/kg in series [1] turned out to be 70%; in series [2], 35%.
As to `Cc1ccnc(N2CCN(CCCCC3Sc4cc(F)ccc4NC3=O)CC2)c1` (centres unmarked) [Example 18], the inhibition in vivo at 20 µmol/kg in series [1] was determined as 80%; in series [2], 53%. Also, the inhibition at 1 µM in series [3] (setting [6]) amounted to 78%; in series [3] (setting [7]), 83%. In series [4], this compound had an inhibition at 10 µM of 76%.
Regarding `COc1ccc2c(c1)SC(CCCCN1CCN(c3cc(C)ccn3)CC1)C(=O)N2` (centres unmarked) [Example 19, 7-methoxy-2-{4-[4-(4-methylpyridin-2-yl)-piperazin-1-yl]-butyl}-2H-1,4-benzothiazine-3(4H)-one], the results for the inhibition in vivo at 20 µmol/kg in series [1] and in series [2] were 80% and 60%, respectively. Moreover, the inhibition at 1 µM worked out at 60% in series [3] (setting [6]) and 42% in series [3] (setting [7]).
Turning to `Cc1ccnc(N2CCN(CCCCC3Sc4cc(C)c(C)cc4NC3=O)CC2)c1` (centres unmarked) [Example 21], the figures for the inhibition in vivo at 20 µmol/kg in series [1] and in series [2] were 78% and 55%, respectively. In addition, the figures for the inhibition at 1 µM in series [3] (setting [6]) and in series [3] (setting [7]) were 50% and 89%, respectively. The same compound yielded an inhibition at 10 µM in series [4] of 37%.
In the case of `Cc1ccnc(N2CCN(CCCCC3Oc4ccc(Cl)cc4NC3=O)CC2)c1` (centres unmarked) [Example 23], the figures for the inhibition at 1 µM in series [3] (setting [6]) and in series [3] (setting [7]) were 70% and 83%, respectively.
For the compound `Cc1ccnc(N2CCN(CCCCC3Oc4ccc(C)cc4NC3=O)CC2)c1` (centres unmarked) [Example 24], the inhibition in vivo at 20 µmol/kg in series [1] is 80%; in series [2], 60%. The inhibition at 1 µM in series [3] (setting [6]) amounted to 70%; in series [3] (setting [7]), 86%.
In the same order, the values of `Cc1ccnc(N2CCN(CCCCC3Sc4cc(O)ccc4NC3=O)CC2)c1` (centres unmarked) [Example 25] are 50%, 15%, 50% and 32%.
For the compound `Cc1ccnc(N2CCN(CCCCC3Sc4cc(Cl)ccc4NC3=O)CC2)c1` (centres unmarked) [Example 27], the inhibition in vivo at 20 µmol/kg in series [1] turned out to be 60%; in series [2] it was 35%. Also, the inhibition at 1 µM was determined as 16% in series [3] (setting [6]) and 72% in series [3] (setting [7]). The inhibition at 10 µM in series [4] stood at 35%.
In the case of `CCCCN1C(=O)C(CCCCN2CCN(c3cc(C)ccn3)CC2)Sc2ccccc21` (centres unmarked) [Example 28], the inhibition in vivo at 20 µmol/kg in series [1] was found to be 65%; in series [2], 40%. Also, the inhibition at 1 µM in series [3] (setting [6]) amounted to 38%; in series [3] (setting [7]), 45%. Also, the inhibition at 10 µM in series [4] came to 45%.
